Tests used:
[1] = biological target: T1, recombinant human (rh) KLK5 protease (Homo sapiens, UniProt Q9Y337); assay: Enzymatic activity of Kallikrein 5 (KLK5), fluorogenic peptide substrate Boc-V-P-R-AMC; type: biochemical; conditions: for KLK5 activity compared to that of salicylic acid: relative to salicylic acid; for stimulation of KLK5 enzymatic activity: rhKLK5 pre-incubated with test compound 60 seconds, rate of substrate cleavage
T1 construct: purchased R&D Systems 1108-SE
T1 sequence (Q9Y337 23-293): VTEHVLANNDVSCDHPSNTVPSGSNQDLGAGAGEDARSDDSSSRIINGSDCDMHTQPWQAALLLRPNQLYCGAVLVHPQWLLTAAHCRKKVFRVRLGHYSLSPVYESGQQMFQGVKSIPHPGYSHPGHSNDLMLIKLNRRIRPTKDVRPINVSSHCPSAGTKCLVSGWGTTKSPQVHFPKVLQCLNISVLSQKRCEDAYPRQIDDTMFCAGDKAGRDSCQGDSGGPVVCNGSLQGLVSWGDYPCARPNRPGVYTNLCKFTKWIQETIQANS
Source text: In the stratum corneum, skin's outermost layer, cell-to-cell cohesion depends primarily on proteins known as the corneodesmosomes. During skin remodeling and renewal dead cells are shed from the skin surface by the action of native proteases that break down the corneodesmosomes. […] Hypothetically, up-regulation of the activities of these proteases using different active candidates could be utilized to increase the rate of shedding of dead skin, thus providing a natural means for skin exfoliation. To this end, the enzymatic activity of a member of the KLK family, recombinant human (rh) KLK5, was monitored following pre-incubation with actives and measuring the rate of peptide bond cleavage of a synthetic substrate.
Enzymatic activity of KLK5 was measured by incubating recombinant human (rh) KLK5 protease (R&D Systems, Cat No. 1108-SE) with a specific fluorogenic peptide substrate Boc-V-P-R-AMC (R& D Systems, Cat No. ES011). The substrate is conjugated to a quenched fluorescent group. Upon cleavage of the adjacent peptide bond, the fluorescent signal is released, resulting in a measurable emission at 535 nm when excited at 340 nm wavelength. Increase in fluorescence reading indicates an increase in rhKLK5 activity. The test compounds were reacted with recombinant rhKLK5 protease for 60 seconds followed by addition of Boc-V-P-R-AMC Fluorogenic Peptide Substrate. After 60 seconds of incubation, fluorescence was measured at 340 nm (Excitation wavelength) and […] (Emission wavelength) every 1 minute for 7 minutes. Rate (kinetics) of enzyme activity was calculated as follows: Rate of enzyme activity=Change of fluorescent reading (after background correction)/Change of reaction time (min). Percent change of activity due to a test compound was calculated by comparing rate of enzyme activity in the presence of the test compound to that of a control without the test compound and statistical significance was calculated using a t-test. Additionally, the rate of activity of the compounds was compared to that of salicylic acid.

[2] = Skin PAMPA parallel artificial membrane penetration assay; type: in vitro ADME; conditions: donor pH 4.25, acceptor pH 7.4, 50 nM, two hours incubation; relative to salicylic acid
Protocol: Several salicylic acid derivatives were assessed for their ability to penetrate skin. Each of the compounds was formulated in an aqueous buffer, with a final pH of 4.25 at a concentration of 50 nM. The skin permeability of the compounds was measured using a high throughput transdermal permeability model, the parallel artificial membrane penetration assay (Skin PAMPA™), which uses a skin mimetic artificial membrane that simulates the barrier properties of the strateum corneum.
Briefly, the Skin PAMPA™ assay is a sandwich assay that utilizes two 96-well plate assemblies, one of which acts as the acceptor chambers (comprising a buffer), and one of which acts as the donor chambers (comprising a buffer and the compound to be tested). […] After an incubation period, the donor and acceptor chambers are analyzed for the amount of compound present.
In the current experiments, the acceptor chamber included an acceptor solution made from Prisma™ HT buffer solution (Pion, Inc.) that was adjusted to a pH of 7.4±0.05 using 1.0 M NaOH, and the donor chamber included a donor solution made from Prisma™ HT buffer solution (Pion, Inc.) that was adjusted to a pH of 4.25±0.05 using 1.0 M NaOH. […] Effective permeability was then calculated by the same method as Sinko et al., Eur. J. Pharm. […]

Row | stimulation of KLK5 enzymatic activity [1] | skin permeability (effective permeability) [2] | Structure (SMILES) | KLK5 activity compared to that of salicylic acid [1]
1 | potent stimulators of KLK5 | highest permeability | CC(C)c1cc(O)c(C(=O)O)c(C(C)C)c1 [Compound A, 4,6-diisopropyl salicylic acid] | superior KLK5 activity as compared to salicylic acid
2 | potent stimulators of KLK5 | highest permeability | CC(C)(C)c1cc(O)c(C(=O)O)c(C(C)(C)C)c1 [Compound B, 4,6-di-tert-butyl salicylic acid] | superior KLK5 activity as compared to salicylic acid
